Reference: PMC10014103, “The immunometabolite itaconate stimulates OXGR1 to promote mucociliary clearance during the pulmonary innate immune response” (The Journal of Clinical Investigation, 2023)

Experiments:
[1] = test system: primary human respiratory epithelial cells (ALI culture); assay: Bead movement in ALI culture of primary human bronchial epithelial cells; type: cell-based; conditions: 500 μM ITA, OXGR1-dependent
Description: . When they reached full confluence, the cells were differentiated by exposure to air and cultured in a serum-free medium for 20 days. ALI culturing of primary human bronchial epithelium was performed following the manufacturer’s manual ([…] Technologies). Briefly, cells were maintained in PneumaCult-Ex Plus medium on a Transwell insert. Medium on the lateral side was switched to PneumaCult-ALI medium. The apical side of the Transwell membrane was then carefully washed with prewarmed Dulbecco’s PBS (DPBS). Cells were differentiated by exposure to air for 3 weeks. The medium was changed every 2 days.
For the measurement of bead movement in ALI culture, the apical side of the ALI culture inserts was washed with PBS 5 times to fully remove mucus. The inserts were transferred to HBSS buffer supplemented with 30 mM HEPES and the indicated ligand, and 20 μL bath buffer containing red fluorescent beads was added to the apical side. After 15 minutes of equilibration, bead movement was monitored with the BioTek Cytation 5 cell imaging system.

human OXGR1 [2] = target: T1, human OXGR1 (Homo sapiens, UniProt Q96P68); assay: Fluo-4 assay in HEK293 cells expressing human OXGR1; type: cell-based; conditions: Fluo-4 assay, hOXGR1 in HEK293 cells; read-out: EC50
Description: For the Fluo-4AM assay, OXGR1-expressing cells were loaded with 2 μM Fluo-4AM for 30 minutes at 37°C. Excess Fluo-4AM was then washed off with HBSS buffer. After incubation at 37°C for another 10 minutes, cells were transferred onto a 96-well plate.

[3] = test system: human OXGR1 orthosteric site mutants; assay: Aequorin assay in HEK293 cells expressing mutant human OXGR1; type: cell-based; conditions: effect of mutation on ligand-stimulated calcium response
Description: (§1) Thirty-six hours after transfection, cells were maintained in serum-free medium for 12 hours and then loaded with 5 μM coelenterazine for 3 hours. Cells were trypsinized and resuspended at a density of 5 × 10^5 cells/mL in HBSS supplemented with 10 mM HEPES and 0.5% BSA. Cell suspensions of 100 μL were aliquoted into 96-well plates.

OXGR1 = assay: Cellular thermal shift assay of OXGR1; type: binding, human; conditions: 1 mM ITA, 37 to 62 °C
Description: Supplementary Figure 4. ITA increases the thermostability of OXGR1
Cells expressing Myc-tagged BirA along with AviTag-tagged wildtype (A) or R110A mutant (B) OXGR1 were treated with 1 μM biotin for 16 hours in serum-free medium to biotinylate OXGR1 in native conformation. Cells were treated with or without 1mM ITA, lysed, and incubated under different temperatures (from 37 to 62℃) for 3 minutes.
Denatured protein was removed by centrifuge. Biotinylated OXGR1 was determined by Western blot and quantified. […]

human OXGR1 [4] = target: T1, human OXGR1; assay: Aequorin assay (calcium mobilization) in HEK293 cells overexpressing human OXGR1; type: cell-based; conditions: for EC50: read-out: EC50
Description: as §1

[5] = test system: primary respiratory epithelial cells from Oxgr1+/+ and Oxgr1–/– mice; assay: Calcium imaging (Fluo-4AM) of primary mouse trachea epithelial cells; type: cell-based; conditions: 670 μM ITA or 100 μM ATP
Description: For calcium imaging of human primary bronchial epithelial cells, cells were infected with 2 CRISPR lentiviruses targeting OXGR1 and cultured for 2 days before calcium imaging. For calcium imaging of primary mouse cells, freshly isolated mouse tracheas were cut into rings, placed onto collagen-coated dishes, and cultured in DMEM supplemented with 10% FBS. Cells were loaded with 5 μM Fluo-4AM for 30 minutes in HBSS buffer, washed twice, and incubated for another 15 minutes for fully deesterification of Fluo-4AM. Cells loaded with Fluo-4AM were monitored with the BioTek Cytation 5 Cell imaging system every 300 ms for a total of 1.5 minutes after ligand administration. Fluorescence was quantified with ImageJ software (NIH).

human GPCRs = target: T2, human GPCRs (Homo sapiens, UniProt Q96P68); assay: Screen of 301 human GPCRs in transfected HEK293 cells (aequorin, Gα16 coexpression); type: cell-based; conditions: 301 GPCRs, ligand final 0.625 mM; result for OXGR1
T2 construct: expressed in transfected cells; host or cells: HEK293
Description: In our search for the function and mechanism of secreted ITA, we noted the signaling of the GPCR proteins SUCNR1/GPR91 and OXGR1/GPR99, which sense the TCA metabolites succinate and α-KG, which are structurally similar to ITA ([27]). To test the hypothesis that ITA may similarly signal through a GPCR, we performed a screening of human GPCRs in transfected HEK293 cells and measured GPCR-dependent calcium mobilization (Figure 1E and Supplemental Figure 1; supplemental material available online with this article; https://doi.org/10.1172/JCI160463DS1). In order to allow more GPCRs to couple with the calcium pathway, we optimized the screening system by inducing coexpression of the promiscuous Gq family α subunit Gα16 ([34]). We examined 301 GPCRs that cover more than 70% of the nonolfactory GPCRs encoded by the human genome ([35]).
For the aequorin assay, HEK293 cells were transfected with aequorin plasmids (Addgene no. 78734), Gα16 plasmid, and GPCR plasmids. Thirty-six hours after transfection, cells were maintained in serum-free medium for 12 hours and then loaded with 5 μM coelenterazine for 3 hours. […] Ligands (100 μL, diluted to 1.25 mM in HBSS buffer, with a final concentration of 0.625 mM) were injected into plates, and luminance was recorded for 30 seconds using the BioTek Synergy H1 plate reader.

FLAG-tagged OXGR1 [6] = target: T3, FLAG-tagged OXGR1 (Homo sapiens, UniProt Q96P68); assay: Endocytosis assay of FLAG-tagged OXGR1 in HEK293 cells; type: cell-based; conditions: WT OXGR1, within 10 minutes of ligand treatment
T3 construct: expressed in transfected cells
Description: (§2) For endocytosis assays, HEK293 cells stably expressing FLAG-OXGR1 were chilled on ice in DMEM medium supplemented with 30 mM HEPES for 10 minutes. […] Unbound antibody was then washed off with prechilled HBSS buffer. […] After ligand stimulation, cells were fixed and permeabilized. Subcellular localization of FLAG-tagged OXGR1 was detected using FITC-donkey anti-rabbit antibody (Invitrogen, Thermo Fisher Scientific), and nuclei were stained with DAPI (MilliporeSigma). Immunofluorescence images were captured with a Leica SP8 laser-scanning confocal microscope.

FLAG-tagged OXGR1 [7] = assay: as above; type: cell-based, human; conditions: after ITA treatment
Description: as §2

mouse trachea = assay: Ex vivo trachea culture, cilia beating-derived fluorescent bead movement; conditions: 500 μM ITA or 100 μM ATP
Description: Tracheas were harvested from mice and cut longitudinally through the middle of the trachealis muscle to expose the lumen of the trachea. Tracheas were then transferred into HBSS buffer and equilibrated for 30 minutes. With the lumen facing down, trachea tissues were transferred into 2 mL HBSS buffer supplemented with 0.5% methylcellulose, red fluorescent beads, 30 mM HEPES, and the indicated ligand. Bead flow was monitored with the BioTek Cytation 5 cell imaging system. Twenty individual beads were tracked from different fields of view in each condition, and the speed of each bead was calculated by […].

## C=C(CC(=O)O)C(=O)O [ITA, itaconate]
[1]
  movement of beads: accelerated the movement of beads
Human OXGR1 [2]
  EC50: 221 ± 107 µM
[3]
  calcium response, mutants C106A, R110A, H258A, R261A, I265A: completely abolished
  calcium response, mutants H114A, Y118F, I121A, I285A, R288A: dramatically impaired
OXGR1
  thermal stability of WT OXGR1: increased the thermal stability
Human OXGR1 [4]; HEK293 cells overexpressing human OXGR1, aequorin
  calcium response (agonist effect): stimulated the calcium response in a dose-dependent manner
Human OXGR1 [4]; OXGR1, as stated in abstract
  EC50: ~300 µM
Human OXGR1 [4]; aequorin assay, hOXGR1 in HEK293 cells
  EC50: 310 ± 45.2 µM
Human OXGR1 [4]; human OXGR1, text summary of Figure 1F and Supplemental Figure 2 (aequorin and Fluo-4)
  EC50: 200 to 300 µM
[5]
  calcium mobilization, Oxgr1+/+ cells: rapid calcium mobilization
Human GPCRs
  calcium mobilization in GPCR screen: the only receptor that showed robust and reproducible calcium mobilization
FLAG-tagged OXGR1 [6]
  endocytosis of OXGR1: rapid endocytosis of OXGR1 was triggered
FLAG-tagged OXGR1 [7]
  endocytosis of R110A or R261A mutant OXGR1: did not undergo endocytosis
Mouse trachea
  movement of beads, trachea from Oxgr1+/+ mice: significantly increased the movement of beads
